Where “and” joins values, the source holds several entries; their conditions need not be identical. Equal values may be shown once.
Columns and labels:
DNase I = molecular target: T1, DNase I (Homo sapiens, UniProt P24855); assay: Endonuclease screening assay, specificity; format: biochemical
T1 sequence (P24855 23-282): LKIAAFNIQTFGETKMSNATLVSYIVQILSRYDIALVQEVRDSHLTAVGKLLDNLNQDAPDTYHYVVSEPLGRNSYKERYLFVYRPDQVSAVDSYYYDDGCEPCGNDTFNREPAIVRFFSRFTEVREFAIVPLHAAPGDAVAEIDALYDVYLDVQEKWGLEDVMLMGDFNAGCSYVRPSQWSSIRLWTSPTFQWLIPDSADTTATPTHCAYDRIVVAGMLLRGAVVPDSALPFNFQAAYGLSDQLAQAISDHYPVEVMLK
Description: (§1) Specificity of a potential inhibitor is important for any in vitro or in vivo application, and generally defines the usefulness of an inhibitor. To determine specificity of the inhibitors for the two EndoG inhibitors, PNR-3-80 and PNR-3-82, their IC50 values for EndoG were compared using the screening assay with the IC50 values for two other endonucleases, DNase I and DNAse II (FIG. 11). These endonucleases were chosen because they represent the majority of endonuclease activity in most mammalian cells and because of their availability as pure enzymes.
(§2) A reaction mixture was prepared in each well of a white 96-well plate (Costar, Corning, N.Y.) as follows: 0.25 μM Cy5.5-labeled oligonucleotide (described in US provisional patent filed Oct. 19, 2012, Ser. No. 61/716,097) 0.3 mM MgCl2, 10 mM Tris-HCl, pH 7.4, 1 μl DMSO containing 5 or 50 ng of test compound, and nuclease-free water for a total reaction volume of 100 μl. The background (negative control) and uninhibited EndoG samples were measured using DMSO only, or DMSO containing recombinant EndoG (4 μg/ml), respectively. After addition of EndoG, fluorescence intensity was kinetically measured on a Bio-Tek Synergy 4.0 plate reader at 37° C. and mean velocity (mRFU/min) within 20 min was automatically calculated by the plate reader. The background was subtracted prior to the calculation of EndoG activity (%). The percent of EndoG activity was calculated from the mean velocity of a compound divided by the mean velocity of DMSO with recombinant EndoG, and the obtained value multiplied by 100.

DNase II = molecular target: T2, DNase II (Homo sapiens, UniProt O00115); assay: Endonuclease screening assay, specificity; format: biochemical
T2 sequence (O00115 19-360): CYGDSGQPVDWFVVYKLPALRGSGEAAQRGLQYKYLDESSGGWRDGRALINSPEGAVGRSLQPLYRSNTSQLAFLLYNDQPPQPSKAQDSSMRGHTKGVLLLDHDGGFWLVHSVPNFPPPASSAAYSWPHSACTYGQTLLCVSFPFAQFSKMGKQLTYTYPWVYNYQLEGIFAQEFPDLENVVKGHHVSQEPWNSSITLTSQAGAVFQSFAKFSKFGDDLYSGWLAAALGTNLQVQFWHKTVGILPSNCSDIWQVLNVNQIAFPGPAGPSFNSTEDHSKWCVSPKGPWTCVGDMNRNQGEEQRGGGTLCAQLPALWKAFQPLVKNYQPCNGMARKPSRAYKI
Description: as §1, §2

EndoG = molecular target: T3, EndoG (Homo sapiens, UniProt Q14249); assay: High-throughput EndoG screening assay; format: biochemical
T3 sequence (Q14249 49-297): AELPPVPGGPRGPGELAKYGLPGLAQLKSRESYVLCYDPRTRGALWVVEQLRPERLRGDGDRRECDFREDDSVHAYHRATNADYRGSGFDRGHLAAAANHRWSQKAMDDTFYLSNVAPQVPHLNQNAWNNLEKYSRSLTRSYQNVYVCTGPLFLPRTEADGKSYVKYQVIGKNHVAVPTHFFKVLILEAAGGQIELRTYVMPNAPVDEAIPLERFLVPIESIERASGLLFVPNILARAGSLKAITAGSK
Description: as §2

LDH = LDH activity in NRK-52E cell extract; format: biochemical; conditions: 0.1 μM and 10 μM
Description: As a follow up to Example 8, the effects of the EndoG inhibitors PNR-3-80 and PNR-3-82, at 0.1 μM and 10 μM each, on the activities of four other enzymes including RNase A, protease, LDH, and SOD in NRK-52E cell extract were examined. NRK-52E cells were grown to ˜80% confluence in […]. The medium was aspirated and the cells were rinsed with ice cold 1×PBS, pH 7.4. The cells were lysed in 50 mM Tris-HCl, pH 7.4, 150 mM NaCl, 1% Triton X-100 for 10 min on ice and then briefly sonicated. Cell debris was removed by centrifugation at 13,000×g for 10 min at 4° C. The supernatant was collected and stored at −80° C. until use. LDH, Protease, Superoxide dismutase (SOD), and Ribonuclease A (RNase A) activities were measured by using CytoTox 96® Non-Radioactive Cytotoxicity Assay kit (Promega, Madison, Wis.), Protease Fluorescent Detection kit (Sigma-Aldrich, Saint Louis, Mo.), SOD determination kit (Sigma-Aldrich, Saint Louis, Mo.), and Ribonuclease A Detection kit (Sigma-Aldrich, Saint Louis, Mo.), respectively, according to the manufacturer's instructions.

NS3-4A = NS3-4A (Hepatitis C virus genotype 1b, UniProt P26663); assay: NS3 protease activity assay; format: biochemical, HCV; conditions: 25 μM compound, 50 nM NS3-4A, 100 nM substrate
Description: The protease activity of NS3 was analyzed in the presence of 25 μM ITBA-3-79, ITBA-3-82 or ITBA-3-85 by using 50 nM NS3-4A and 100 nM substrate (Ac-Asp-Glu-Asp-EDANS-Glu-Glu-Abu-L-Lactoyl-Ser-Lys DABCYL-NH2). The emission spectra of EDANS and the absorption spectra of DABCYL overlap making the peptide internally quenched. Cleaving of the substrate by the protease results in an increase in fluorescence that can be measured (λex−355 nm; λem, −500 nm). Telapravir (10 μM) was used as a positive control.

Chain of NS3-4A (P26663 1027-1657): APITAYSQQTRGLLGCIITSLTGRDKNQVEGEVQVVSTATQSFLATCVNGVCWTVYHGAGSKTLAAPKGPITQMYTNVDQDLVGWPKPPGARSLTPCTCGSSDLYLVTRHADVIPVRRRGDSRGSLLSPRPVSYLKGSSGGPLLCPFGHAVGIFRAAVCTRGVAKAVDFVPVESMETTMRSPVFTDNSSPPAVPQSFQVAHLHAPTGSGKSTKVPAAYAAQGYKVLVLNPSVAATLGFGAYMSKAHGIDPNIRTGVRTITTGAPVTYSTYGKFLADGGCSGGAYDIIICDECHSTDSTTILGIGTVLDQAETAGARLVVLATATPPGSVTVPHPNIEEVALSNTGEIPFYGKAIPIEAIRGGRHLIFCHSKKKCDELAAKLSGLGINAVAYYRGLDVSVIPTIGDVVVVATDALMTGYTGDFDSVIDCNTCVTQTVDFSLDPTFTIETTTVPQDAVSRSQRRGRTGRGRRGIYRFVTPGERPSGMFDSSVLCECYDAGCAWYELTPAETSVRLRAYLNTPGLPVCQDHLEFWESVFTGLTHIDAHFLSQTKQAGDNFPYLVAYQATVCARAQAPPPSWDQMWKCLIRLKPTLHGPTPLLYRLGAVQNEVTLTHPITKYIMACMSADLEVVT
Chain of NS3-4A (P26663 1658-1711): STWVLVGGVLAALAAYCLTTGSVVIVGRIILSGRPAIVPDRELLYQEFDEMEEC

What does the source list for `COc1ccc2c(c1)c(C=C1C(=O)NC(=S)NC1=O)cn2C(=O)c1ccc2ccccc2c1` [PNR-3-82]?
IC50 (DNase I): 63300 nM; effect on DNase II activity (DNase II): did not have any effect; remaining activity at 1 µM (EndoG; 20 min, compound 1 μM, read-out: % EndoG activity in the presence of the compound): 21.8%; IC50 (EndoG; IC50 against EndoG, EndoG screening assay): 613 nM and 610 nM; LDH activity (LDH): none of the two tested compounds had any inhibiting activity; NS3 protease activity (NS3-4A): do not block protease activity

Reference: patent publication US20160075689A1, “POLYMERASE, ENDONUCLEASE, AND HELICASE INHIBITORS AND METHODS OF USING THEREOF” (THE BOARD OF TRUSTEES OF THE UNIVERSITY OF ARKANSAS, priority 2013, published 2016)
